Results reported in patent US6338963B1, “Use of carbon monoxide dependent guanylyl cyclase modifiers to stimulate neuritogenesis” (NeoTherapeutics, Inc., priority 1994, dated 2002).

Assays:
[1] = tested on: NGF; test: NGF release from rat cultured astrocytes (ELISA); format: cell-based; conditions: for release of NGF from astrocytes: exposure for 24 hours
Method: The dose response for AIT-082 and guanosine on nerve growth factor and S100β protein release from rat culture astrocytes is shown in FIG. 30. NGF was assayed by a double-site ELISA, using a monoclonal anti-NGF antibody, coupled or not to β-galactosidase according to the method of I. D. Laviada et al., “Phosphatidylcholine-Phospholipase C Mediates the Induction of Nerve Growth Factor in Cultured Glial Cells,” FEBS Lett. 364: 301-304 (1995).
The NGF and S100β protein were measured by removing the cultured medium for the ELISA assays at each indicated time point.
NGF and TGFβ2 levels were assayed in the culture medium of the astrocytes by specific ELISA assays using kits from Roche (Germany) and Promega (USA) respectively. NGF basal levels were 56.3±3.2 pg/ml. TGFβ2 levels were 9.1±0.06 pg/ml.
In FIG. 61, the dose-response curves of NGF and TGFβ2 release from rat cultured astrocytes as the result of exposure to AIT-082 are shown.

[2] = tested on: PC12 cells; test: Neuritogenesis in PC12 cells; format: cell-based, rat; design: key to Neuritogenesis: fraction of cells bearing neurites (mean ± SEM)
Summary of the method: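 Rat pheochromocytoma PC12 cells on poly-ornithine were treated with AIT-082 alongside saturating NGF (40 ng/ml) from plating for 48 h, then formalin-fixed. Neurites ≥1 cell-body diameter with growth cone were counted; the neurite-bearing fraction is expressed relative to NGF alone (100%), mean ±SEM of 6 cultures.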

[3] = tested on: MAP kinases ERK1 (44 kDa) and ERK2 (42 kDa); test: Western blot of phospho-ERK1/2 in cultured astrocytes; format: cell-based, rat; conditions: for activation (phosphorylation) of MAP kinases ERK1 and ERK2: astrocyte cytosolic proteins
Method: In FIG. 60, the activation of MAP kinases ERK1 (44 kDa) and ERK2 (42 kDa) by guanosine is shown. Cultured astrocytes were harvested at 4° C. in lysis buffer specific for MAP kinase: 25 mM Tris buffer, pH 7.4, containing 150 mM NaCl, 100 μM sodium orthovanadate, 1.5 mM MgCl2, 1.0 mM EDTA, 1% NP40, 10% glycerol, 1 mM PMSF, 5 μg/ml leupeptin, and 10 μg/ml aprotinin and sonicated and centrifuged at 14,000 rpm for 5 min. Aliquots of the supernatants were processed for the assessment of protein concentration (M. M. Bradford, “A Rapid and Sensitive Method for the Quantitation of Microgram Quantities of Protein Using the Principle of Protein-Dye Binding,” Anal. Biochem. 72: 248-254 (1976)). Electrophoresis was performed in 12% SDS-PAGE, using 20 μg of total protein per lane and separated proteins were then transferred onto a PVDF membrane (Bio-Rad Laboratories, Italy). Membranes were first incubated with polyclonal primary antibody (rabbit phospho-ERK1/2 antibody, New England Biolabs, Germany; final dilution 1:1000) for 1 hour and then with donkey anti-rabbit HPR-conjugated secondary antibody (Amersham, Italy; final dilution 1:5000) for another 1 hour, both at room temperature. Immunocomplexes were visualized using the enhancing chemiluminescence detection system (ECL) (Amersham, Italy).
This activation was no longer evident after 10 minutes or 20 minutes of stimulation. […] This effect is likely independent of the activity of growth factors, such as NGF, that also act through this molecular pathway. Cultured astrocytes were harvested at 4° C. in lysis buffer specific for MAP kinase: 25 mM Tris buffer, pH 7.4, containing 150 mM NaCl, 100 μM sodium orthovanadate, 1.5 mM MgCl2, 1.0 mM EDTA, 1% NP40, 10% glycerol, 1 mM PMSF, 5 μg/ml leupeptin, and 10 μg/ml aprotirin and sonicated and centrifuged at 14,000 prm for 5 min. Aliquots of the supernatants were processed for the assessment of protein concentration (Bradford, 1976). […]

## O=C(CCn1cnc2c(=O)[nH]cnc21)Nc1ccc(C(=O)O)cc1 [AIT-082, N-4-carboxyphenyl-3-(6-oxohydropurin-9-yl)propanamide]
[1]; AIT-082 100 μM
  time after exposure at which release of NGF was enhanced: 12 h
  time of maximum release of NGF: 24 h
[1]
  release of NGF from astrocytes: dose-dependent increase
[1]; rat cultured astrocytes
  increase of NGF production as compared to a control: about 2.5 fold
[2]; AIT-082 10 μM, L-NAME 0.1 μM
  Neuritogenesis: 0.220 ± 0.010
[2]; AIT-082 10 μM, L-NAME 1.0 μM
  Neuritogenesis: 0.302 ± 0.027
[2]; AIT-082 10 μM, L-NAME 10.0 μM
  Neuritogenesis: 0.254 ± 0.018
[2]; AIT-082 10 μM, L-NAME None
  Neuritogenesis: 0.254 ± 0.008
[2]; AIT-082 100 μM, L-NAME 0.1 μM
  Neuritogenesis: 0.257 ± 0.016
[2]; AIT-082 100 μM, L-NAME 1.0 μM
  Neuritogenesis: 0.232 ± 0.019
[2]; AIT-082 100 μM, L-NAME 10.0 μM
  Neuritogenesis: 0.289 ± 0.006
[2]; AIT-082 100 μM, L-NAME None
  Neuritogenesis: 0.309 ± 0.027
[2]; AIT-082 10 mM + NGF 40 ng/ml, no inhibitor
  Proportion of cells bearing neurites, AIT-082 + NGF: 0.26 ± 0.01
[2]; AIT-082 10 mM, no NGF, no inhibitor, 48 hours
  Proportion of cells bearing neurites, AIT-082 alone: 0.2 ± 0.02
[2]; AIT-082 + NGF 40 ng/ml, Methemoglobin 1 μM
  Proportion of cells bearing neurites, AIT-082 + NGF: 0.17 ± 0.02
[2]; AIT-082 + NGF 40 ng/ml, Methylene Blue 5 μM
  Proportion of cells bearing neurites, AIT-082 + NGF: 0.10 ± 0.01
[2]; AIT-082 + NGF 40 ng/ml, Zn Protoporphyrin IX 1 μM
  Proportion of cells bearing neurites, AIT-082 + NGF: 0.13 ± 0.01
[2]; PC12 cells, 48 hours
  concentration effective in stimulating neuritogenesis and enhancing NGF-stimulated neuritogenesis: 1 mM
  neuritogenesis compared with NGF: as effective as NGF
[2]; with 40 ng/ml NGF, 48 hours
  enhancement of the optimal effects of NGF on neuritogenesis: 30%
[3]; AIT-082 100 μM, no longer evident after 10 or 20 minutes
  time of maximal activation of the enzyme cascade: 5 min
[3]
  activation (phosphorylation) of MAP kinases ERK1 and ERK2: stimulated the phosphorylation of MAP kinases ERK1 (44 kDa) and ERK2 (42 kDa)

## Nc1nc2c(ncn2[C@@H]2O[C@H](CO)[C@@H](O)[C@H]2O)c(=O)[nH]1 [guanosine]
[1]
  release of NGF from astrocytes: dose-dependent increase
[2]; compound alone
  neurite outgrowth in the absence of NGF: slightly increased the proportion of cells with neurites
[2]; in the presence of NGF, 48 hours
  enhancement of NGF-induced neurite outgrowth: enhanced the neurite outgrowth induced by NGF
[3]
  activation (phosphorylation) of MAP kinases ERK1 and ERK2: activation
